Active and inactive are the calls of the source.
Key:
[1] = MITF: Counter assay: A375 proliferation Measured in Cell-Based System Using Plate Reader - 2084-03_Inhibitor_Dose_DryPowder_Activity_Set8.; type: functional; settings: A-375
[2] = MITF Orthogonal Assay: SK-MEL-5 CTG Assay Measured in Cell-Based System Using Plate Reader - 2084-02_Inhibitor_Dose_DryPowder_Activity_Set7.; type: functional
[3] = inhibitors of TRPM1-promoter reporter in SK-MEL-5 – cell-based, luciferase, dry powder, set 8, MITF inhibitor project, dose response (AID 624430); type: functional
cells [4] = settings: HEK293
[5] = molecular target: T1, Nuclear receptor subfamily 0 group B member 1 (Homo sapiens, UniProt P51843); test: Luminescence-based cell-based high throughput dose response assay for inhibitors of the orphan nuclear receptor subfamily 0, group B, member 1 (DAX1; NR0B1). [Related pubchem assays (depositor defined):AID504766, AID504790]; type: functional
T1 sequence (P51843 whole entry): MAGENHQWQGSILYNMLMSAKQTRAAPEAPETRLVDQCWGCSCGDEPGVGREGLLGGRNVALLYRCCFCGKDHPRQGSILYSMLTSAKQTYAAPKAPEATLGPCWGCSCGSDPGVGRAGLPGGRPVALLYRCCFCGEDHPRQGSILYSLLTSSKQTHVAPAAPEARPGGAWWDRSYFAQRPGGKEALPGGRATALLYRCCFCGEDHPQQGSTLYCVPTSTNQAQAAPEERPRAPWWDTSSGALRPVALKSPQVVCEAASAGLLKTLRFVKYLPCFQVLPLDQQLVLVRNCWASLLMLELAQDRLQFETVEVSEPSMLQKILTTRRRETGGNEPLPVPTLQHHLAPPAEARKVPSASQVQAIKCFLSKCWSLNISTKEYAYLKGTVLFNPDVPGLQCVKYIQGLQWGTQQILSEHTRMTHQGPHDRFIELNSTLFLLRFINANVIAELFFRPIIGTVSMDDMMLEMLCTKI

HEK293 = test: cells; type: functional, cell-based; settings: Homo sapiens
[6] = molecular target: Disintegrin and metalloproteinase domain-containing protein 17 (Homo sapiens, UniProt P78536); test: exosite inhibitors of ADAM17, dose response, biochemical (AID 743260)
[7] = inhibition of ADAM10 peptide cleavage – biochemical, FRET peptide substrate, recombinant human ADAM10, selectivity assay for ADAM17 exosite inhibitor project, dose response (AID 743259);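 also: ADAM10 enzyme cleaving a FRET peptide substrate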
[8] = viability loss in MITF-independent A375 cells – cell-based, CellTiter-Glo luminescence, dry powder, set 2, counter-screen for MITF inhibitor project, dose response (AID 624489); type: functional; settings: A-375;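 also: actives are compounds lowering A375 viability meaning general cytotoxicity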
[9] = cytotoxicity in MITF-independent A375 cells – cell-based, CellTiter-Glo luminescence, dry powder, set 4, counter-screen for MITF inhibitor project, dose response (AID 624364); type: functional; settings: A-375;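 also: A375 melanoma cells are MITF independent so this is a counter screen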
[10] = viability loss in HepG2 liver cells – cell-based, ATP luminescence, cherry-pick, set 6, cytotoxicity control, dose response (AID 1053125); type: functional
[11] = molecular target: Heat shock protein HSP 90-alpha (Homo sapiens, UniProt P07900); type: functional, organism-based
[12] = reduction of Shn3 3'UTR-driven luciferase in osteoblasts – cell-based, Clone20 osteoblasts, firefly luciferase, cherry-picked, dose response (AID 624132); type: functional;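 also: firefly luciferase luminescence from reporter carrying the Shn3 3'UTR in osteoblasts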
[13] = rise of 4N DNA cells, HeLa – IC50, dose response (AID 1117351); type: functional, cell-based
[14] = non-specific 3'UTR reporter inhibition in Clone20-Shn3RL – cell-based, Renilla luciferase, cherry-picked, counter-screen for Shn3 inhibitor project, dose response (AID 624133); type: functional
[15] = rise of 2N DNA cells, HeLa – IC50, dose response (AID 1117349); type: functional, cell-based
[16] = molecular target: T2, COUP transcription factor 2 (Homo sapiens, UniProt P24468); test: Luminescence-based cell-based high throughput dose response assay to identify inhibitors of COUP-TFII (NR2F2).; type: functional;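 also: HEK293 cells transiently cotransfected with COUP-TFII expression vector and reporter; luciferase reporter luminescence driven by COUP-TFII from the pX2-168 reporter plasmid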
T2 sequence (P24468 whole entry): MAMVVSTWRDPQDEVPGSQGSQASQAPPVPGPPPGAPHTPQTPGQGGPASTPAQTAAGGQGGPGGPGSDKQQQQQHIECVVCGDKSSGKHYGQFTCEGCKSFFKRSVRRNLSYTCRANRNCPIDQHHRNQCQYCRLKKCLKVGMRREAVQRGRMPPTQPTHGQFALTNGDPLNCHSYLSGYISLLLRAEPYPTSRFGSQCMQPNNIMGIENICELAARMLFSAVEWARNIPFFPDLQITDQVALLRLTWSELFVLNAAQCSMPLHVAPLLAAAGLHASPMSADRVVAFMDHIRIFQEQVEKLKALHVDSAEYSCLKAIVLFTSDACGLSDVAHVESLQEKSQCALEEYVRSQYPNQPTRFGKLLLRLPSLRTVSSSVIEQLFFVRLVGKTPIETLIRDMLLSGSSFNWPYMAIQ

[17] = reduced cellular PGC1a acetyl-lysine signal – cell-based, cherry-picked samples, dose response (AID 720514); type: functional;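 also: potency may reflect raised or lowered acetylation signal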
cells [18] = test: cells
Major prion protein = Major prion protein (Homo sapiens, UniProt P04156); type: functional, cell-based

**Q.** What does the source list for O=C1C(Nc2ccc(F)cc2)=C(N2CCCC2)C(=O)c2ccccc21?
**A.** AC50 [1]: 11.9 µM (active); AC50 [2]: 625 nM (active); AC50 [3]: 583 nM (active)

**Q.** For Cc1ccc2c(c1)-c1c(cnn1CC(=O)Nc1ccccc1N1CCN(C)CC1)CO2, which AC50 (cells [4]) is on record?
**A.** 47.1 µM (active)

**Q.** Which IC50 [5] does the source give for COCCOc1ccc(C(F)(F)F)cc1NC(=O)CN1C(=O)NC(C)(c2ccc3c(c2)OCO3)C1=O (stereo not given) here?
**A.** > 67.5 µM (inactive)

**Q.** And the IC50 (HEK293)?
**A.** > 67.5 µM (inactive)

**Q.** What about the IC50 [6] of the same compound?
**A.** > 69.5 µM (inactive)

**Q.** What about the IC50 [7] of the same compound?
**A.** 27.7 µM (inactive)

**Q.** For CN1CCN(C2=C(NC(=O)c3ccccc3)C(=O)c3ccccc3C2=O)CC1, which AC50 [8] is on record?
**A.** 12.9 µM (active)

**Q.** And the AC50 [9]?
**A.** 17 µM (active)

**Q.** For Cc1cccn2c(=O)c3cc(C#N)/c(=N\C(=O)c4cccs4)n(CC(C)C)c3nc12, which AC50 [10] is on record?
**A.** > 52 µM (inactive)

**Q.** Which AC50 [11] does the source give for C[C@@H]1C[C@@H]([C@H](O)CC2CC(=O)NC(=O)C2)C(=O)[C@@H](C)C1 [CYCLOHEXIMIDE] here?
**A.** < 195 nM (active)

**Q.** What about the AC50 [12] of the same compound?
**A.** 345 nM (active)

**Q.** What about the IC50 [13] of the same compound?
**A.** > 10 µM (inactive)

**Q.** And the AC50 [14]?
**A.** 695 nM (active)

**Q.** And the IC50 [15]?
**A.** > 10 µM (inactive)

**Q.** What about the IC50 [16] of the same compound?
**A.** 1.32 µM (active)

**Q.** What about the AC50 [17] of the same compound?
**A.** 2.23 µM (active)

**Q.** For O=C(O)c1ccccc1C(=O)c1cccc2c(Br)cccc12, which IC50 (cells [18]) is on record?
**A.** > 138 µM (inactive)

**Q.** And the IC50 (Major prion protein)?
**A.** 1.57 µM (active)

Reference: ChEMBL document CHEMBL1201862, “PubChem BioAssay data set” (2004)
